The values that follow are results of earlier work, collected in publication PMC9441020 (Journal of medicinal chemistry, 2022).

Take `O=C(O)c1nc(-c2cccs2)nc(O)c1O` [compound 10, 5-Hydroxy-6-oxo-2-(thiophen-2-yl)-1,6-dihydropyrimidine-4-carboxylic acid]: in the data set with HIV-1 INST, the “inhibition of HIV-1 INST” value is given as “did not inhibit”. Besides, the “inhibition of HCV NS5B” value in the data set on HCV NS5B is “effectively inhibiting”.

Take `O=C(NCc1ccccc1)c1nc(-c2cccs2)nc(O)c1O` [compound 11, N-Benzyl-5-hydroxy-6-oxo-2-(thiophen-2-yl)-1,6-dihydropyrimidine-4-carboxamide]: the “inhibition of HIV-1 INST” value in the data set on HIV-1 INST was “potently inhibited”. Moreover, the “inhibition of HCV NS5B” value in the data set with HCV NS5B is “without significantly inhibiting”.
